According to patent US20240148821A1, “PHARMACEUTICAL USE OF CYCLIC PEPTIDE COMPOUND” (CHUGAI SEIYAKU KABUSHIKI KAISHA, priority 2021, published 2024):
Numbered stars: 1 amine (or outer) side, 2 acyl side, 3 side chain; on linkers, the order of the positions; unused ones are H or OH. Bridge positions count the residues as written; N and C are the ends. Square brackets hold non-standard residues; d marks the D form. Peptide text beside a SMILES is read from it. * marks the point of attachment. hPhe(3,5-F2-4-CF3) = N[C@@H](CCc1cc(F)c(C(F)(F)F)c(F)c1)C(=O)O; hPhe(3-Cl-4-CF3) = N[C@@H](CCc1ccc(C(F)(F)F)c(Cl)c1)C(=O)O; X6 = O=C([C@H](CCc1ccc2c(c1)OC(F)(F)O2)N[*:1])[*:2]; hPhe(4-CF3) = N[C@@H](CCc1ccc(C(F)(F)F)cc1)C(=O)O; ACHC(1R,2R) = O=C([C@@H]1CCCC[C@H]1N[*:1])[*:2]; 3Oxa8azabicyclo(3.2.1)octane = C1CC2COCC1N2*; NMePhe(4-Cl) = CN[C@@H](Cc1ccc(Cl)cc1)C(=O)O; NMePhe(4-Me) = CN[C@@H](Cc1ccc(C)cc1)C(=O)O; NMedβ3hAla = C[C@H](CC(=O)[*:2])N(C)[*:1]; X77 = O=C(CN(CCN1CCC(F)(F)CC1)[*:1])[*:2]; NMeAla(cPent) = CN[C@@H](CC1CCCC1)C(=O)O; NMeGly(cPent) = CN[C@H](C(=O)O)C1CCCC1; NMeCha = CN[C@@H](CC1CCCCC1)C(=O)O; Hyp = O=C(O)[C@@H]1C[C@@H](O)CN1; NMeAhp(2) = CCCCC[C@H](NC)C(=O)O; NMeChg = CN[C@H](C(=O)O)C1CCCCC1; NMeF = CN[C@@H](Cc1ccccc1)C(=O)O; NMeT = CN[C@H](C(=O)O)[C@@H](C)O; NMeD = CN[C@@H](CC(=O)O)C(=O)O; NMeL = CN[C@@H](CC(C)C)C(=O)O; NMeNva = CCC[C@H](NC)C(=O)O; NMeV = CN[C@H](C(=O)O)C(C)C; d(β3hA) = C[C@@H](N)CC(=O)O; Azetidin(1-yl) = C1CN(*)C1; NMeS = CN[C@@H](CO)C(=O)O; NMeA = CN[C@@H](C)C(=O)O; Piperidide = C1CCN(*)CC1; Ac5c = NC1(C(=O)O)CCCC1; Aze = O=C(O)[C@@H]1CCN1; CH2CMe2OH = CC(C)(O)C*; Sar = CNCC(=O)O; Propyl = CCC*

Biological target: protein-protein interaction between Kras and SOS1 (biotin-tagged human Kras loaded with GDP, His-tagged human SOS1) (Homo sapiens (Human), UniProt P01116, G12D)
Assay: Protein-protein interaction inhibition between Kras and SOS1 (KrasG12D-SOS PPI) using AlphaScreen;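 note: kras produced in E. coli, Ni-coupled donor beads and streptavidin acceptor beads, excitation 680 nm with emission detected at 520–620 nm via singlet oxygen transfer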
Assay type: biochemical
Settings: AlphaScreen; biotin-tagged human Kras loaded with GDP, His-tagged human SOS1; read-out: KRAS G12D-SOS PPI IC50

| SMILES | IC50 |
| --- | --- |
| CC[C@H](C)[C@@H]1NC(=O)[C@H](C(C)C)NC(=O)[C@@H]2CCCC[C@H]2NC(=O)[C@H](CC(C)C)N(C)C(=O)C2(CCCC2)NC(=O)[C@H](CC(C)C)N(C)C(=O)[C@H](CCc2ccc(C(F)(F)F)cc2)NC(=O)CN(C)C(=O)[C@H](Cc2ccc(Cl)cc2)N(C)C(=O)CN(C)C(=O)CN(C)C1=O [Compound 1126] (cyclo([Ac5c][NMeL][ACHC(1R,2R)]VI[Sar][Sar][NMePhe(4-Cl)][Sar][hPhe(4-CF3)][NMeL])) | 250 nM |
| CCCCC[C@H]1C(=O)N[C@@H]([C@@H](C)CC)C(=O)N[C@@H](C)C(=O)N2CC[C@H]2C(=O)N(C)[C@@H](COCCC)C(=O)N(C)CC(=O)N[C@@H](CCc2ccc(C(F)(F)F)c(Cl)c2)C(=O)N2CCC[C@H]2C(=O)NC2(CCCC2)C(=O)N(C)[C@@H](C2CCCC2)C(=O)N(C)[C@H](C(=O)N2C3CCC2COC3)CC(=O)N1C [Compound 163] ([NMeAhp(2)]IA[Aze][NMeS](Propyl)[Sar][hPhe(3-Cl-4-CF3)]P[Ac5c][NMeGly(cPent)][NMeD]-{3Oxa8azabicyclo(3.2.1)octane}; lactam N-11) | 6.1 nM |
| CC[C@H](C)[C@@H]1NC(=O)[C@H](CC(C)C)N(C)C(=O)C[C@@H](C(=O)N2CCCCC2)N(C)C(=O)[C@H](C2CCCCC2)N(C)C(=O)C2(CCCC2)NC(=O)[C@@H]2CCCN2C(=O)[C@H](CCc2ccc(C(F)(F)F)c(Cl)c2)NC(=O)CN(C)C(=O)[C@H](Cc2ccc(C)cc2)N(C)C(=O)[C@@H]2CCN2C(=O)[C@H](C)N(C)C1=O [Compound 1795] ([NMeL]I[NMeA][Aze][NMePhe(4-Me)][Sar][hPhe(3-Cl-4-CF3)]P[Ac5c][NMeChg][NMeD]-Piperidide; lactam N-11) | 0.99 nM |
| CC[C@H](C)[C@@H]1NC(=O)[C@H](CC(C)C)N(C)C(=O)C[C@@H](C(=O)N2CCCCC2)N(C)C(=O)[C@H](C2CCCCC2)N(C)C(=O)C2(CCCC2)NC(=O)CN(CCN2CCC(F)(F)CC2)C(=O)[C@H](CCc2ccc(C(F)(F)F)c(Cl)c2)NC(=O)CN(C)C(=O)[C@H](CC2CCCCC2)N(C)C(=O)CN(C)C(=O)CN(C)C1=O [Compound 2022] ([NMeL]I[Sar][Sar][NMeCha][Sar][hPhe(3-Cl-4-CF3)][X77][Ac5c][NMeChg][NMeD]-Piperidide; lactam N-11) | 3.8 nM |
| CC[C@H](C)[C@@H]1NC(=O)[C@H](CC(C)C)N(C)C(=O)C[C@@H](C)NC(=O)[C@H](C2CCCC2)N(C)C(=O)C2(CCCC2)NC(=O)[C@@H]2CCCN2C(=O)[C@H](CCc2ccc(C(F)(F)F)c(Cl)c2)NC(=O)CN(C)C(=O)[C@H](Cc2ccc(C)cc2)N(C)C(=O)CN(C)C(=O)CN(C)C1=O [Compound 1471] (cyclo([Ac5c][NMeGly(cPent)][d(β3hA)][NMeL]I[Sar][Sar][NMePhe(4-Me)][Sar][hPhe(3-Cl-4-CF3)]P)) | 1.7 nM |
| CC[C@H](C)[C@@H]1NC(=O)[C@H](CC(C)C)N(C)C(=O)C[C@@H](C(=O)N2CCCCC2)N(C)C(=O)[C@H](C2CCCC2)N(C)C(=O)C2(CCCC2)NC(=O)[C@@H]2CCCN2C(=O)[C@H](CCc2ccc3c(c2)OC(F)(F)O3)NC(=O)CN(C)C(=O)[C@H](CC2CCCCC2)N(C)C(=O)[C@@H]2CCN2C(=O)[C@H](C)N(C)C1=O [Compound 2074] ([NMeL]I[NMeA][Aze][NMeCha][Sar][X6]P[Ac5c][NMeGly(cPent)][NMeD]-Piperidide; lactam N-11 (inferred); C-terminus assumed) | 2.7 nM |
| CC[C@H](C)[C@@H]1NC(=O)[C@H](C)N(C)C(=O)C[C@@H](C)NC(=O)[C@H](C2CCCC2)N(C)C(=O)C2(CCCC2)NC(=O)[C@@H]2CCCN2C(=O)[C@H](CCc2ccc(C(F)(F)F)c(Cl)c2)NC(=O)CN(C)C(=O)[C@H](Cc2ccc(C)cc2)N(C)C(=O)CN(C)C(=O)CN(C)C1=O [Compound 1485] (cyclo([Ac5c][NMeGly(cPent)][d(β3hA)][NMeA]I[Sar][Sar][NMePhe(4-Me)][Sar][hPhe(3-Cl-4-CF3)]P)) | 0.84 nM |
| CC[C@H](C)[C@@H]1NC(=O)[C@H](CC(C)C)N(C)C(=O)C[C@@H](C(=O)N2CCCCC2)N(C)C(=O)[C@H](C2CCCCC2)N(C)C(=O)C2(CCCC2)NC(=O)[C@H](COCC(C)(C)O)N(C)C(=O)[C@H](CCc2ccc(C(F)(F)F)c(Cl)c2)NC(=O)CN(C)C(=O)[C@H](CC2CCCCC2)N(C)C(=O)CN(C)C(=O)CN(C)C1=O [Compound 789] ([NMeL]I[Sar][Sar][NMeCha][Sar][hPhe(3-Cl-4-CF3)][NMeS](CH2CMe2OH)[Ac5c][NMeChg][NMeD]-Piperidide; lactam N-11) | 0.61 nM |
| CCC[C@H]1C(=O)N2CC[C@H]2C(=O)N(C)[C@@H](CC2CCCCC2)C(=O)N(C)CC(=O)N[C@@H](CCc2ccc(C(F)(F)F)c(Cl)c2)C(=O)N2CCC[C@H]2C(=O)NC2(CCCC2)C(=O)N(C)[C@@H](C(C)C)C(=O)N[C@H](C)CC(=O)N(C)[C@@H](CC(C)C)C(=O)N[C@@H]([C@@H](C)CC)C(=O)N1C [Compound 1560] (cyclo([Ac5c][NMeV][d(β3hA)][NMeL]I[NMeNva][Aze][NMeCha][Sar][hPhe(3-Cl-4-CF3)]P)) | 160 nM |
| CC[C@H](C)[C@@H]1NC(=O)[C@H](CC2CCCC2)N(C)C(=O)C[C@@H](C(=O)N2CCC2)N(C)C(=O)[C@H](C2CCCC2)N(C)C(=O)C2(CCCC2)NC(=O)[C@@H]2CCCN2C(=O)[C@H](CCc2ccc(C(F)(F)F)c(Cl)c2)NC(=O)CN(C)C(=O)[C@H](CC2CCCCC2)N(C)C(=O)[C@@H]2CCN2C(=O)[C@H](C)NC1=O [Compound 921] ([NMeAla(cPent)]IA[Aze][NMeCha][Sar][hPhe(3-Cl-4-CF3)]P[Ac5c][NMeGly(cPent)][NMeD]-{Azetidin(1-yl)}; lactam N-11) | 1.1 nM |
| CC[C@H](C)[C@@H]1NC(=O)[C@H](CC(C)C)N(C)C(=O)C[C@@H](C(=O)N2CCCCC2)N(C)C(=O)[C@H](C(C)C)N(C)C(=O)C2(CCCC2)NC(=O)[C@@H]2CCCN2C(=O)[C@H](CCc2ccc(C(F)(F)F)c(Cl)c2)NC(=O)CN(C)C(=O)[C@H](CC2CCCCC2)N(C)C(=O)[C@@H]2CCN2C(=O)[C@H](C(C)C)N(C)C1=O [Compound 1592] ([NMeL]I[NMeV][Aze][NMeCha][Sar][hPhe(3-Cl-4-CF3)]P[Ac5c][NMeV][NMeD]-Piperidide; lactam N-11) | 210 nM |
| CCO[C@@H]1C[C@H]2C(=O)NC3(CCCC3)C(=O)N(C)[C@@H](C3CCCC3)C(=O)N(C)[C@H](C)CC(=O)N(C)[C@@H](CC(C)C)C(=O)N[C@@H]([C@@H](C)CC)C(=O)N(C)CC(=O)N(C)CC(=O)N(C)[C@@H](CC3CCCCC3)C(=O)N(C)CC(=O)N[C@@H](CCc3cc(F)c(C(F)(F)F)c(F)c3)C(=O)N2C1 [Compound 74] (cyclo([Ac5c][NMeGly(cPent)][NMedβ3hAla][NMeL]I[Sar][Sar][NMeCha][Sar][hPhe(3,5-F2-4-CF3)][Hyp](Et))) | 7.2 nM |
| CC[C@H](C)[C@@H]1NC(=O)[C@H](CC(C)C)N(C)C(=O)C[C@@H](C)N(C)C(=O)[C@H](C(C)C)N(C)C(=O)C2(CCCC2)NC(=O)[C@@H]2CCCN2C(=O)[C@H](CCc2ccc(C(F)(F)F)c(Cl)c2)NC(=O)CN(C)C(=O)[C@H](CC2CCCC2)N(C)C(=O)CN(C)C(=O)CN(C)C1=O [Compound 88] (cyclo([Ac5c][NMeV][NMedβ3hAla][NMeL]I[Sar][Sar][NMeAla(cPent)][Sar][hPhe(3-Cl-4-CF3)]P)) | 18 nM |
| CC[C@H](C)[C@@H]1NC(=O)[C@H](CC(C)C)N(C)C(=O)C[C@@H](C(=O)N2CCCCC2)N(C)C(=O)[C@H](C(C)C)N(C)C(=O)C2(CCCC2)NC(=O)[C@@H]2CCCN2C(=O)[C@H](CCc2ccc(C(F)(F)F)c(Cl)c2)NC(=O)CN(C)C(=O)[C@H]([C@@H](C)OC)N(C)C(=O)[C@@H]2CCN2C(=O)[C@H](C)N(C)C1=O [Compound 929] ([NMeL]I[NMeA][Aze][NMeT](Me)[Sar][hPhe(3-Cl-4-CF3)]P[Ac5c][NMeV][NMeD]-Piperidide; lactam N-11) | 4.1 nM |
| CC[C@H](C)[C@@H]1NC(=O)[C@H](CC(C)C)N(C)C(=O)C[C@@H](C(=O)N2CCCCC2)N(C)C(=O)[C@H](C2CCCCC2)N(C)C(=O)C2(CCCC2)NC(=O)[C@@H]2CCCN2C(=O)[C@H](CCc2ccc(C(F)(F)F)c(Cl)c2)NC(=O)CN(C)C(=O)[C@H](CC2CCCCC2)N(C)C(=O)[C@@H]2CCN2C(=O)[C@H](C)N(C)C1=O [Compound 249] ([NMeL]I[NMeA][Aze][NMeCha][Sar][hPhe(3-Cl-4-CF3)]P[Ac5c][NMeChg][NMeD]-Piperidide; lactam N-11) | 1.6 nM |
| CC[C@H](C)[C@@H]1NC(=O)[C@H](C)N(C)C(=O)C[C@@H](C)NC(=O)[C@H](CC(C)C)N(C)C(=O)[C@H](Cc2ccccc2)N(C)C(=O)[C@H](CC(C)C)N(C)C(=O)[C@H](CCc2ccc(C(F)(F)F)cc2)NC(=O)CN(C)C(=O)[C@H](Cc2ccc(Cl)cc2)N(C)C(=O)CN(C)C(=O)CN(C)C1=O [Compound 546] (cyclo(I[Sar][Sar][NMePhe(4-Cl)][Sar][hPhe(4-CF3)][NMeL][NMeF][NMeL][d(β3hA)][NMeA])) | 130 nM |
| CC[C@H](C)[C@@H]1NC(=O)[C@H](C)N(C)C(=O)C[C@@H](C)NC(=O)[C@H](CC(C)C)N(C)C(=O)[C@H](Cc2ccccc2)N(C)C(=O)[C@H](CC(C)C)NC(=O)[C@H](CCc2ccc(C(F)(F)F)cc2)NC(=O)CN(C)C(=O)[C@H](Cc2ccc(Cl)cc2)N(C)C(=O)CN(C)C(=O)CN(C)C1=O [Compound 271] (cyclo(I[Sar][Sar][NMePhe(4-Cl)][Sar][hPhe(4-CF3)]L[NMeF][NMeL][d(β3hA)][NMeA])) | 65 nM |
| CC[C@H](C)[C@@H]1NC(=O)[C@H](C)N(C)C(=O)C[C@@H](C)NC(=O)[C@H](C(C)C)N(C)C(=O)[C@H](Cc2ccccc2)N(C)C(=O)[C@H](CC(C)C)N(C)C(=O)[C@H](CCc2ccc(C(F)(F)F)cc2)NC(=O)CN(C)C(=O)[C@H](Cc2ccc(Cl)cc2)N(C)C(=O)CN(C)C(=O)CN(C)C1=O [Compound 51] (cyclo(I[Sar][Sar][NMePhe(4-Cl)][Sar][hPhe(4-CF3)][NMeL][NMeF][NMeV][d(β3hA)][NMeA])) | 90 nM |
